Data reported in patent US4904672A, “Derivatives of 3-hydroxyazabenzo[b]thiophene useful as 5-lipoxygenase inhibitors” (Merck & Co., Inc., priority 1988, dated 1990).

Columns and labels:
[1] = molecular target: T1, PMN 5-lipoxygenase (Rattus norvegicus, UniProt P12527); assay: Inhibition of PMN 5-lipoxygenase in the rat (LTB4 by RIA, A23187-stimulated PMN); assay type: cell-based, rat (male Sprague-Dawley); conditions: for inhibition at 1000 µg/mL: dose 1 mg/ml; for inhibition at 30 µg/mL: dose 0.03 mg/ml; for inhibition at 10 µg/mL: dose 0.01 mg/ml
T1 sequence (P12527 1-673): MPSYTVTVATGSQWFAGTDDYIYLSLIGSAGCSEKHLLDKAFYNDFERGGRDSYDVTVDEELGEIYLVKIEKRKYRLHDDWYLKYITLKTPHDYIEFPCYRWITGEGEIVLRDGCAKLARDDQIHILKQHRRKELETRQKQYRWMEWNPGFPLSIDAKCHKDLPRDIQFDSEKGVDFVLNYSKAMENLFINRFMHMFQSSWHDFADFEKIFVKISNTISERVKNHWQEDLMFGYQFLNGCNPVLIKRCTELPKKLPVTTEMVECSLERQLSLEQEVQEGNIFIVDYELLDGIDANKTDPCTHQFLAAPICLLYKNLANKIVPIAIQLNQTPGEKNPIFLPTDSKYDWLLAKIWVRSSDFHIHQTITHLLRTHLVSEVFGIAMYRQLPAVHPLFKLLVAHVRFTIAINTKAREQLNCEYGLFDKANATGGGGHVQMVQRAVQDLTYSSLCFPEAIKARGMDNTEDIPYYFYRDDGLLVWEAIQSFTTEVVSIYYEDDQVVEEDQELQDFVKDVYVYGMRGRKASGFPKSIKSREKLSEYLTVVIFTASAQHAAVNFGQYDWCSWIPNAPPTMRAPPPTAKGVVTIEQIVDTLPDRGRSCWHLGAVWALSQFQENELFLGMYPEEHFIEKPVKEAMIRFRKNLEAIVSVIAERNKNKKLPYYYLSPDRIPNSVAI
Description: 2. Inhibition of PMN 5-lipoxygenase in the rat Methods
Male Sprague-Dawley rates under ether anesthesia were injected i.p. with 8 mls of 12% aqueous sodium caseinate. After 15-24 hours the animals were sacrificed with CO2 and the peritoneal cavities were lavaged with Eagles MEM with Earles salts and containing L-glutamine and 30 mM HEPES. The pH was adjusted to 7.4. The lavage fluid was centrifuged for 5 minutes at 350×g at room temperature. The cells were resuspended in fresh medium and filtered through lens paper. The cells were pelleted again and reconstituted to concentration of 1×10^7 cells/ml with fresh medium.
The experiments were run as follows: 0.5μ of test compound in DMSO or 0.5 μl DMSO alone was added to reaction tubes. 0.5 ml aliquots of the stirred PMN suspension maintained at 37° C. were then added. After 2 minutes, 0.5 μl of 10 mM A23187 (final concentration=10 μM) or 0.5 μl of DMSO was added and allowed to incubate for 4 additional minutes at 37° C. The reaction was stopped by the addition of 0.5 ml of cold methanol. The precipitated proteins were removed by centrifugation and the supernatant fluid was analyzed via RIA or HPLC.
Radioimmunoassay determinations of LTB4
Radioimmunoassays were performed using the dextran-coated charcoal binding method as described by J. L. Humes in Methods for Studying Mononuclear Phagocytes (Eds. D. Adams et al.) p. 641, Academic Press, N.Y. (1981).
Aliquots, 2 μl, of the supernatant fluids were added to assay tubes and incubated for 10 minutes at 37° C. to remove methanol. Fifty μl of tissue culture medium M-199 containing 1 percent heat-inactivated-porcine serum was then added to each tube. Standard amounts of LTB4 were also prepared in this medium so that 50 μl aliquots contained 25-1000 pg. Antisera to LTB4 was diluted 1:3000 with 10 mM potassium phosphate, pH 7.3 containing 1 mM ethylenediaminetetracetic acid and 0.25 mM thimerasol (PET buffer). Aliquots, 100 μl, of the diluted antisera were added to both standard and unknown tubes and incubated at room temperature for 0.5 hour. (5,6,8,9,11,12,14,15-^3 H)-LTB4 (Amersham, 150 Ci/mMol) was diluted with PET to a concentration of 1 nCi/ml. Aliquots, 100 μl , were added and the mixture incubated for 2 hours at room temperature or alternatively overnight at 4° C. One ml of dextran-coated charcoal solution is added to all tubes. After centrifugation for 10 minutes at 1000×g the radioactivity in the supernatant fluid was determined.
The dextran-coated charcoal removes the unbound ^3 H-LTB4. Therefore in this procedure the antibody-bound-^3 H-LTB4 is measured. The RIA^4 determinations are performed on single samples.

[2] = tested on: Brewer's yeast-induced hyperalgesia (pain response); assay: Brewer's Yeast Hyperalgesia Assay in the rat; assay type: in vivo, rat (female Sprague-Dawley); conditions: 3 mg/kg p.o.
Description: In this assay, which is sensitive to inhibition by lipoxygenase and cyclooxygenase inhibitors, compounds of formula I reduced the pain response induced by Brewer's yeast (Table 1a).
Groups of 10 female Sprague-Dawley rats, weighing 35-50 grams (Charles River Breeding Laboratories), were fasted overnight prior to testing. For each animal, 0.1 ml of the edema-inducing Brewer's yeast suspension (5% homogenate in physiological saline) was injected into the right hindpaw. Pain threshold was measured by applying pressure to the plantar surface of the hindpaw by means of a compressed air driven piston with a 2 mm. tip. Testing was carried out 3, 4, and 5 hours after the yeast injection. Compounds, prepared as homogenates in either 1% methylcellulose or aqueous vehicle, were administered orally 60 minutes before testing. A group of vehicle treated control animals was included in each experiment. Squeak pressure thresholds were measured and recorded for the compound and vehicle-treated groups of rats 3, 4, and 5 hours after administration of the Brewer's yeast (60 minutes after compound treatment). The estimation of analgesia was as follows: 1. the mean response pressure for the daily vehicle control group in the normal and inflammed foot was calculated; 2. for each compound treatment group, the number of animals with response pressures equal to or greater than 25 mm Hg was noted. These animals were considered to be analgesic.

Row | Structure (SMILES) | inhibition at 100 µg/mL ([1]; dose 0.1 mg/ml) [%] | inhibition at 300 µg/mL ([1]; dose 0.3 mg/ml) [%] | inhibition at 1000 µg/mL [1] [%] | inhibition at 37 µg/mL ([1]; dose 0.037 mg/ml) [%] | further results
1 | Cc1cc2sc(-c3ccccc3)c(O)c2c(C)n1 [N=5, R=H, X1=4-CH3,6-CH3, X2=H] | 43 | 90 | 99 |  | 
2 | CC(=O)Oc1c(-c2ccccc2)sc2nc(C(C)(C)C)ccc12 [N=7, R=(CO)CH3, X1=t-Bu, X2=H, 3-Acetoxy-6-(1,1-dimethylethyl)-2-phenyl-7-azabenzo[b]thiophene] | 34 | 70 | 95 |  | inhibition at 30 µg/mL [1]: 23%
3 | COc1ccc(-c2sc3cc(C)nc(C)c3c2OC(C)=O)cc1 | 45 | 75 |  |  | inhibition at 30 µg/mL [1]: 4%
4 | CC(=O)Oc1c(-c2ccccc2)sc2nc(Cl)ccc12 [N=7, R=(CO)CH3, X1=6-Cl, X2=H] | 63 | 82 | 100 |  | 
5 | CC(=O)Oc1c(-c2ccccc2)sc2ncccc12 [R=(CO)CH3, X1=H, X2=H, 7-aza-3-acetyloxy-2-phenyl-benzo[b]thiophene] |  |  |  |  | % Inhibition (yeast hyperalgesia) [2]: 60%
6 | COc1ccc(-c2sc3cccnc3c2OC(C)=O)cc1 [N=4, R=(CO)CH3, X1=H, X2=p-OCH3, 3-Acetyloxy-2-(4-methoxyphenyl)-4-azabenzo[b]thiophene] | 21 | 73 | 100 |  | 
7 | COc1ccc(-c2sc3cnccc3c2O)cc1 [N=6, R=H, X1=H, X2=p-OCH3, 3-Hydroxy-2-(4-methoxyphenyl)-6-azabenzo[b]thiophene] | 79 | 100 |  |  | inhibition at 30 µg/mL [1]: 45%
8 | CC(=O)Oc1c(-c2ccccc2)sc2ccncc12 [N=5, R=(CO)CH3, X1=H, X2=H, 3-Acetyloxy-5-aza-2-phenylbenzo[b]thiophene] | 97 | 100 |  | 58 | 
9 | CC(=O)Oc1c(-c2ccccc2)sc2nccc(Cl)c12 [N=7, R=(CO)CH3, X1=4-Cl, X2=H] | 32 |  | 100 | 22 | 
10 | CC(=O)Oc1c(-c2ccc(F)cc2)sc2ncccc12 [R=(CO)CH3, X1=H, X2=p-F, 7-aza-3-acetyloxy-2-(4-fluorophenyl)-benzo[b]thiophene] |  |  |  |  | % Inhibition (yeast hyperalgesia) [2]: 70%
11 | COc1ccc(-c2sc3ncccc3c2OC(C)=O)cc1 [R=(CO)CH3, X1=H, X2=p-OCH3] |  |  |  |  | % Inhibition (yeast hyperalgesia) [2]: 10%
12 | COc1ccc(-c2sc3ccncc3c2O)cc1 [N=5, R=H, X1=H, X2=p-OCH3, 5-Aza-3-hydroxy-2-(4-methoxyphenyl)-benzo[b]thiophene] |  | 100 |  |  | inhibition at 400 µg/mL ([1]; dose 0.4 mg/ml): 63%
13 | COc1ccc2c(OC(C)=O)c(-c3ccccc3)sc2n1 [R=(CO)CH3, X1=6-OCH3, X2=H] |  |  |  |  | % Inhibition (yeast hyperalgesia) [2]: 60%
14 | COc1ccc(-c2sc3ccncc3c2OC(C)=O)cc1 [N=5, R=(CO)CH3, X1=H, X2=p-OCH3, 3-Acetyloxy-5-aza-2-(4-methoxyphenyl)benzo[b]thiophene] | 80 | 99 |  | 22 | % Inhibition (PMN 5-lipoxygenase) ([1]; dose 0.1 mg/ml): 60%; % Inhibition (PMN 5-lipoxygenase) ([1]; dose 0.3 mg/ml): 100%
15 | COCC(=O)Oc1c(-c2ccccc2)sc2ncccc12 [R=(CO)CH2 OCH3, X1=H, X2=H] |  |  |  |  | % Inhibition (yeast hyperalgesia) [2]: 50%

More lines, main results first:

Row | inhibition at 100 µg/mL ([1]; dose 0.1 mg/ml) [%] | inhibition at 300 µg/mL ([1]; dose 0.3 mg/ml) [%] | inhibition at 1000 µg/mL [1] [%] | inhibition at 37 µg/mL ([1]; dose 0.037 mg/ml) [%] | Structure (SMILES) | further results
16 | 100 |  |  | 95 | CC(=O)Oc1c(-c2ccccc2)sc2ncccc12 [N=7, R=(CO)CH3, X1=H, X2=H, 7-aza-3-acetyloxy-2-phenyl-benzo[b]thiophene] | inhibition at 10 µg/mL [1]: 40%
17 | 53 | 98 | 98 |  | CC(C)(C)c1ccc2c(O)c(-c3ccccc3)sc2n1 [N=7, R=H, X1=t-Bu, X2=H, 6-(1,1-dimethylethyl)-3-hydroxy-2-phenyl-7-azabenzo[b]thiophene] | 
18 | 97 | 100 |  | 52 | COc1cccc(-c2sc3ncccc3c2OC(C)=O)c1 [N=7, R=(CO)CH3, X1=H, X2=m-OCH3] | 
19 | 100 |  |  | 24 | COc1ccc(-c2sc3ncccc3c2O)cc1 [N=7, R=H, X1=H, X2=p-OCH3] | 
20 | 99 | 100 |  | 88 | Oc1c(-c2ccc(F)cc2)sc2ncccc12 [N=7, R=H, X1=H, X2=p-F] | inhibition at 10 µg/mL [1]: 32%
21 | 33 | 49 | 90 |  | COc1ccc(-c2sc3c[n+]([O-])ccc3c2OC(C)=O)cc1 [drawing 25, N=6, R=(CO)CH3, X1=H] | 
22 | 39 | 94 | 98 |  | Oc1c(-c2cccnc2)sc2ncccc12 [drawing 24, N=7, R=H, X1=H, X2=H] | inhibition at 30 µg/mL [1]: 0%
23 | 77 | 100 |  | 39 | CC(=O)Oc1c(-c2ccc(C#N)cc2)sc2ncccc12 [N=7, R=(CO)CH3, X1=H, X2=p-CN] | 
24 | 100 |  |  | 49 | CC(=O)Oc1c(-c2ccc(F)cc2)sc2ncccc12 [N=7, R=(CO)CH3, X1=H, X2=p-F, 7-aza-3-acetyloxy-2-(4-fluorophenyl)-benzo[b]thiophene] | inhibition at 10 µg/mL [1]: 24%
25 | 61 | 100 | 100 |  | CC(=O)Oc1c(-c2ccc(C(F)(F)F)cc2)sc2ncccc12 [N=7, R=(CO)CH3, X1=H, X2=p-CF3] | 
26 | 100 |  |  | 59 | COc1ccc(-c2sc3ncccc3c2OC(C)=O)cc1 [N=7, R=(CO)CH3, X1=H, X2=p-OCH3] | % Inhibition (PMN 5-lipoxygenase) ([1]; dose 0.037 mg/ml): 70%
27 | 100 | 100 |  |  | COc1cccc(-c2sc3ncccc3c2O)c1 [N=7, R=H, X1=H, X2=m-OCH3, 7-Aza-3-hydroxy-2-(3-methoxyphenyl)-benzo[b]thiophene] | inhibition at 30 µg/mL [1]: 76%
28 | 100 |  |  |  | Oc1c(-c2ccccc2)sc2ncccc12 [N=7, R=H, X1=H, X2=H, 3-Hydroxy-2-phenyl-7-azabenzo[b]thiophene] | inhibition at 12 µg/mL ([1]; dose 0.012 mg/ml): 32%
29 | 73 | 100 |  |  | COc1ccccc1-c1sc2ncccc2c1OC(C)=O [N=7, R=(CO)CH3, X1=H, X2=o-OCH3] | inhibition at 30 µg/mL [1]: 33%
